A short description of assay [1]: Pulsatile Lutrelef delivery by minipump in Gnrh::Cre; iBot sensitive (overweight) female mice. The format is in vivo. Conditions: sensitive females.
A short description of assay [2]: Pulsatile Lutrelef infusion by subcutaneous programmable mini-pump in obese and lean mice, food intake followed daily. The format is in vivo. Particulars: 14 days. As to the method: Adult lean and obese male mice were housed under specific pathogen-free conditions in a temperature-controlled room (21-22° C.) with a 12 h light/dark cycle. Animals were provided with ad libitum access to food and water. The body weight of the animals and their food intake were followed on a daily base. Animal studies were approved by the Institutional Ethics Committee for the Care and Use of Experimental Animals of the University of Lille; all experiments were performed in accordance with the guidelines for animal use specified by the European Union Council Directive of Sep. 22, 2010 (2010/63/EU). […] To restore a control/lean pattern of GnRH/LH release in obese mice, we next implanted subcutaneous programmable mini-pumps that delivered either Lutrelef (0.25 μg of GnRH per pulse over 10 min given every 3 h) or vehicle to the mice (i.e., the pattern of secretion found in lean mice). Lutrelef is a native GnRH peptide that is clinically used to successfully treat hypogonadotropic infertility (23,24). The regimen was given for 14-days, during which body weight and food intake were followed daily.

Assay [3] can be described thus: Pulsatile Lutrelef delivery by minipump in a Gnrh::Cre; iBot sensitive (overlean) male mouse. Particulars: one sensitive male (n=1), one pulse every 3 h. The format is in vivo, mice.

`CC(C)C[C@H](NC(=O)CNC(=O)[C@H](Cc1ccc(O)cc1)NC(=O)[C@H](CO)NC(=O)[C@H](Cc1c[nH]c2ccccc12)NC(=O)[C@H](Cc1cnc[nH]1)NC(=O)[C@@H]1CCC(=O)N1)C(=O)N[C@@H](CCCNC(=N)N)C(=O)N1CCC[C@H]1C(=O)NCC(N)=O` [Lutrelef]: in assay [1] (dark phase (feeding period) (FIG. 10B)), the “substrate use from RER data” value was “restores the use of carbohydrates during the dark phase”. Besides, the bodyweight entry in assay [1] (one pulse every 2 h, 15 days (FIG. 10A)) is “decreased body weight”; in assay [3] (15 days (FIG. 11A)), “fully rescues bodyweight”. The “respiratory exchange ratio (RER)” value in assay [1] (one pulse every 2 h, 15 days (FIGS. 10B, 10C)) is recorded as “normalised”. In assay [1] (one pulse every 2 h, 15 days (FIGS. 10D, 10E)), the food intake entry is on record as “normalised”. The “amount of food eaten” value in assay [2] (lean mice, same pulsatile regimen, compared with vehicle-infused littermates (FIG. 9)) is given as “no observable effect”. Besides, the cumulative food intake entry in assay [2] (obese male mice, 0.25 μg of GnRH per pulse over 10 min every 3 h, compared with lean mice (FIG. 9)) was “normalised their cumulative food intake to levels comparable with lean mice”. The “increase in food intake” value in assay [3] (15 days (FIGS. 11B, 11C)) is listed as 15%.

Values taken from patent US20240033321A1, “PULSATIVE GNRH ADMINISTRATION FOR TREATING FOOD INTAKE RELATED DISORDERS” (INSTITUT NATIONAL DE LA SANTÉ ET DE LA RECHERCHE MÉDICALE, priority 2020, published 2024).
